What follows are molecules tested against T1, hNPRA (Homo sapiens, UniProt P16066) (assay: NPRA Functional Cell Assay (cGMP HTRF, NPRA HEK JumpIn stable cells)). Settings: cGMP production, 1 hour at 37° C., 10-point dose response.
T1 construct: expressed in transfected cells
T1 sequence (P16066 33-1061): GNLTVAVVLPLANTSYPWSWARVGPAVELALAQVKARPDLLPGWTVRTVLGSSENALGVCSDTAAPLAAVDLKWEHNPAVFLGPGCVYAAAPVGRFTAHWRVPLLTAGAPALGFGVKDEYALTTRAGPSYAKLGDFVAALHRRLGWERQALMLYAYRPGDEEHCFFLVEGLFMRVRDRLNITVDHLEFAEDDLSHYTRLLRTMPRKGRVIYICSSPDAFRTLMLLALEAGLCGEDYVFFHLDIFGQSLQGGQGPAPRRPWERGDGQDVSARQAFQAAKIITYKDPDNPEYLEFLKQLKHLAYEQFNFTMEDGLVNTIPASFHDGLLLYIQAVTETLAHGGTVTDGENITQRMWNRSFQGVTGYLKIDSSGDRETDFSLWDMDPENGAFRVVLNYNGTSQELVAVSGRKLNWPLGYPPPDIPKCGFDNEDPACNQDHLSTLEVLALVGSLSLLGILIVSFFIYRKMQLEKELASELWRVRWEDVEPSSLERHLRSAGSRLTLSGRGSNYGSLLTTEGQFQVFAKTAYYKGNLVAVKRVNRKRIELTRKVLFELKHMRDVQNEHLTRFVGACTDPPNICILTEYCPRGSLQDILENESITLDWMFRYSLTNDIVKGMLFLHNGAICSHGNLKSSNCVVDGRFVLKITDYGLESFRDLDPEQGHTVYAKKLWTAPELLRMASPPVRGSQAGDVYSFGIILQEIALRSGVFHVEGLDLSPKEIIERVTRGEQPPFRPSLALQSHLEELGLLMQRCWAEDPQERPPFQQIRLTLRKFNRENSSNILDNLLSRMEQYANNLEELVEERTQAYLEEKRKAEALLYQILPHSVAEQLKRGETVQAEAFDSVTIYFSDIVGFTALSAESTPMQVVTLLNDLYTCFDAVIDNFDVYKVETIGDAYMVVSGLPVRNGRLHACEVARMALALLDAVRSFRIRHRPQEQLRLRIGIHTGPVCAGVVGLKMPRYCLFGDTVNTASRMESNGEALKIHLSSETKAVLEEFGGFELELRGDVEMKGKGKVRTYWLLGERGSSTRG
Assay type: cell-based
In short: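 cGMP HTRF read-out after 1 hour compound treatment at 37° C. of human NPRA-expressing HEK JumpIn cells, 1500 cells/well, in buffer with phosphodiesterase inhibitors IBMX and RO20 (100 uM each). Signal converted to [cGMP] by calibration curve; EC50s fitted by 4-parameter logistic; 50 nM h-ANP as positive response.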

Q: CN1CC(NC(=O)c2cccc([C@@H](CCN3CCC(O)CC3)NC(=O)c3nc4cc5c(nc4s3)CC[C@H](C(C)(C)C)C5)c2)CC1=O (mixture of isomers) [Example 149, rac-(7S)-7-tert-butyl-N-[rac-(1R)-3-(4-hydroxy-1-piperidyl)-1-[3-[(1-methyl-5-oxo-pyrrolidin-3-yl)carbamoyl]phenyl]propyl]-5,6,7,8-tetrahydrothiazolo[5,4-b]quinoline-2-carboxamide] was tested. Which EC50 did it give?
A: 656 nM

Q: Which EC50 does the source give for CC(C)(C)[C@H]1CCc2nc3sc(C(=O)N[C@H](CCN4CCC(O)CC4)c4cccc(C(=O)NCCN5CCOCC5)c4)nc3cc2C1 (racemic) [Example 150, rac-(7S)-7-tert-butyl-N-[rac-(1R)-3-(4-hydroxy-1-piperidyl)-1-[3-(2-morpholinoethylcarbamoyl)phenyl]propyl]-5,6,7,8-tetrahydrothiazolo[5,4-b]quinoline-2-carboxamide] here?
A: 682 nM

Q: With CC(C)(C)[C@H]1CCc2nc3sc(C(=O)N[C@H](CCN4CCC(O)CC4)c4cccc(C(=O)NCCO)c4)nc3cc2C1 (racemic) [Example 151, rac-(7S)-7-tert-butyl-N-[rac-(1R)-1-[3-(2-hydroxyethylcarbamoyl)phenyl]-3-(4-hydroxy-1-piperidyl)propyl]-5,6,7,8-tetrahydrothiazolo[5,4-b]quinoline-2-carboxamide] as the molecule, how does the EC50 read?
A: 682 nM

Q: Which EC50 does the source give for CC(C)(C)[C@H]1CCc2nc3sc(C(=O)N[C@H](CCN4CCC(O)CC4)c4cccc(C(=O)NCC5CCNC5)c4)nc3cc2C1 (mixture of isomers) [Example 152, rac-(7S)-7-tert-butyl-N-[rac-(1R)-3-(4-hydroxy-1-piperidyl)-1-[3-(pyrrolidin-3-ylmethylcarbamoyl)phenyl]propyl]-5,6,7,8-tetrahydrothiazolo[5,4-b]quinoline-2-carboxamide] here?
A: 686 nM

Q: How did the EC50 turn out when CC(C)(C)[C@H]1CCc2nc3sc(C(=O)N[C@H](CCN4CCC(O)CC4)c4cccc(C(=O)N5CC(O)(C(F)(F)F)C5)c4)nc3cc2C1 (racemic) [Example 153, rac-(7S)-7-tert-butyl-N-[rac-(1R)-3-(4-hydroxy-1-piperidyl)-1-[3-[3-hydroxy-3-(trifluoromethyl)azetidine-1-carbonyl]phenyl]propyl]-5,6,7,8-tetrahydrothiazolo[5,4-b]quinoline-2-carboxamide] was run?
A: 716 nM

Q: CC(C)(C)[C@H]1CCc2nc3sc(C(=O)N[C@H](CCN4CCC(O)CC4)c4cccc(C(=O)NC5CCNC5=O)c4)nc3cc2C1 (mixture of isomers) [Example 154, rac-(7S)-7-tert-butyl-N-[rac-(1R)-3-(4-hydroxy-1-piperidyl)-1-[3-[(2-oxopyrrolidin-3-yl)carbamoyl]phenyl]propyl]-5,6,7,8-tetrahydrothiazolo[5,4-b]quinoline-2-carboxamide] was tested. Which EC50 did it give?
A: 721 nM

Q: With CC(C)(C)[C@H]1CCc2nc3sc(C(=O)N[C@H](CCN4CCC(O)CC4)c4cccc(C(=O)NC5CNC(=O)C5)c4)nc3cc2C1 (mixture of isomers) [Example 155, rac-(7S)-7-tert-butyl-N-[rac-(1R)-3-(4-hydroxy-1-piperidyl)-1-[3-[(5-oxopyrrolidin-3-yl)carbamoyl]phenyl]propyl]-5,6,7,8-tetrahydrothiazolo[5,4-b]quinoline-2-carboxamide] as the molecule, how does the EC50 read?
A: 766 nM

Q: For CC(C)(C)[C@H]1CCc2nc3sc(C(=O)N[C@H](CCN4CCC(O)CC4)c4cccc(C(=O)N5CC(O)C5)c4)nc3cc2C1 (racemic) [Example 156, rac-(7S)-7-tert-butyl-N-[rac-(1R)-1-[3-(3-hydroxyazetidine-1-carbonyl)phenyl]-3-(4-hydroxy-1-piperidyl)propyl]-5,6,7,8-tetrahydrothiazolo[5,4-b]quinoline-2-carboxamide], which EC50 is on record?
A: 830 nM

Q: CC(C)(C)[C@H]1CCc2nc3sc(C(=O)N[C@H](CCN4CCC(O)CC4)c4cccc(C(=O)N5CC(N6CCOCC6)C5)c4)nc3cc2C1 (racemic) [Example 157, rac-(7S)-7-tert-butyl-N-[rac-(1R)-3-(4-hydroxy-1-piperidyl)-1-[3-(3-morpholinoazetidine-1-carbonyl)phenyl]propyl]-5,6,7,8-tetrahydrothiazolo[5,4-b]quinoline-2-carboxamide] was tested. Which EC50 did it give?
A: 876 nM

Q: CN1CC(NC(=O)c2cccc([C@@H](CCN3CCC(O)CC3)NC(=O)c3nc4cc5c(nc4s3)CC[C@H](C(C)(C)C)C5)c2)CCC1=O (mixture of isomers) [Example 158, rac-(7S)-7-tert-butyl-N-[rac-(1R)-3-(4-hydroxy-1-piperidyl)-1-[3-[(1-methyl-6-oxo-3-piperidyl)carbamoyl]phenyl]propyl]-5,6,7,8-tetrahydrothiazolo[5,4-b]quinoline-2-carboxamide] was tested. Which EC50 did it give?
A: 890 nM

Q: CN1CC(CNC(=O)c2cccc([C@@H](CCN3CCC(O)CC3)NC(=O)c3nc4cc5c(nc4s3)CC[C@H](C(C)(C)C)C5)c2)CC1=O (mixture of isomers) [Example 159, rac-(7S)-7-tert-butyl-N-[rac-(1R)-3-(4-hydroxy-1-piperidyl)-1-[3-[(1-methyl-5-oxo-pyrrolidin-3-yl)methylcarbamoyl]phenyl]propyl]-5,6,7,8-tetrahydrothiazolo[5,4-b]quinoline-2-carboxamide] was tested. Which EC50 did it give?
A: 901 nM

Q: For COC(=O)C1CN(C(=O)c2cccc([C@@H](CCN3CCC(O)CC3)NC(=O)c3nc4cc5c(nc4s3)CC[C@H](C(C)(C)C)C5)c2)CCO1 (mixture of isomers) [Example 160, methyl 4-[3-[rac-(1R)-3-(4-hydroxy-1-piperidyl)-1-[[rac-(7S)-7-tert-butyl-5,6,7,8-tetrahydrothiazolo[5,4-b]quinoline-2-carbonyl]amino]propyl]benzoyl]morpholine-2-carboxylate], which EC50 is on record?
A: 1210 nM

Q: How did the EC50 turn out when CC(C)(C)[C@H]1CCc2nc3sc(C(=O)N[C@H](CCN4CCC(O)CC4)c4cccc(C(=O)N5CCO[C@H]6CNC[C@H]65)c4)nc3cc2C1 (racemic) [Example 161, rac-(7S)-7-tert-butyl-N-[rac-(1R)-3-(4-hydroxy-1-piperidyl)-1-[3-[rac-(4aR,7aS)-3,4a,5,6,7,7a-hexahydro-2H-pyrrolo[3,4-b][1,4]oxazine-4-carbonyl]phenyl]propyl]-5,6,7,8-tetrahydrothiazolo[5,4-b]quinoline-2-carboxamide] was run?
A: 1950 nM

Q: Which EC50 does the source give for CC(C)(C)[C@H]1CCc2nc3sc(C(=O)N[C@H](CCN4CCC(O)CC4)c4ccc(-c5ccnnc5)cc4)nc3cc2C1 (racemic) [Example 162, rac-(7S)-7-tert-butyl-N-[rac-(1R)-3-(4-hydroxy-1-piperidyl)-1-(4-pyridazin-4-ylphenyl)propyl]-5,6,7,8-tetrahydrothiazolo[5,4-b]quinoline-2-carboxamide] here?
A: 198 nM

Q: CC(C)(C)[C@H]1CCc2nc3sc(C(=O)N[C@H](CCN4CCC(O)CC4)c4ccc(-c5cc[n+]([O-])nc5)cc4)nc3cc2C1 (racemic) [Example 163, rac-(7S)-7-tert-butyl-N-[rac-(1R)-3-(4-hydroxypiperidin-1-ium-1-yl)-1-[4-(1-oxidopyridazin-1-ium-4-yl)phenyl]propyl]-5,6,7,8-tetrahydrothiazolo[5,4-b]quinoline-2-carboxamide; 2,2,2-trifluoroacetate] was tested. Which EC50 did it give?
A: 357 nM

Q: For CC(C)(C)[C@H]1CCc2nc3sc(C(=O)N[C@H](CCN4CCC(O)CC4)c4ccc(-c5ccc(=O)[nH]c5)cc4)nc3cc2C1 (racemic) [Example 164, rac-(7S)-7-tert-butyl-N-[rac-(1R)-3-(4-hydroxypiperidin-1-ium-1-yl)-1-[4-(6-hydroxy-3-pyridyl)phenyl]propyl]-5,6,7,8-tetrahydrothiazolo[5,4-b]quinoline-2-carboxamide; 2,2,2-trifluoroacetate], which EC50 is on record?
A: 590 nM

Q: Which EC50 does the source give for CC(C)(C)[C@H]1CCc2nc3sc(C(=O)N[C@H](CCN4CCC(O)CC4)c4ccc(-c5ccc(O)nn5)cc4)nc3cc2C1 (racemic) [Example 165, rac-(7S)-7-tert-butyl-N-[rac-(1R)-3-(4-hydroxypiperidin-1-ium-1-yl)-1-[4-(6-hydroxypyridazin-3-yl)phenyl]propyl]-5,6,7,8-tetrahydrothiazolo[5,4-b]quinoline-2-carboxamide; 2,2,2-trifluoroacetate] here?
A: 611 nM

Q: How did the EC50 turn out when CC(C)(C)[C@H]1CCc2nc3sc(C(=O)N[C@H](CCN4CCC(O)CC4)c4ccc(-c5c[nH]nc5C#N)cc4)nc3cc2C1 (racemic) [Example 166, rac-(7S)-7-tert-butyl-N-[rac-(1R)-1-[4-(3-cyano-1H-pyrazol-4-yl)phenyl]-3-(4-hydroxypiperidin-1-ium-1-yl)propyl]-5,6,7,8-tetrahydrothiazolo[5,4-b]quinoline-2-carboxamide; 2,2,2-trifluoroacetate] was run?
A: 614 nM

Source: US12440496B2, “Natriuretic peptide receptor a agonists useful for the treatment of cardiometabolic diseases, kidney disease and diabetes” (Merck Sharp & Dohme LLC, priority 2019, dated 2025)
